# Where “and” joins values, the source holds several entries; their conditions need not be identical. Equal entries are not always repeated. Where two headings read alike, the source gives them in different places.
# Legend:
# TPH1 = molecular target: T1, TPH1 (Homo sapiens, UniProt P17752); assay: Differential scanning fluorimetry (DSF) thermal stability assay; assay type: binding; details: for Tm (°C) ± SD (°C), primary screen / ΔTm at 50 µM / ΔTm (°C) ± SD (°C), primary screen: DSF, 50 μM compound; for Tm (°C) ± SD (°C), primary screen: 0.075 mg/mL TPH1, 0.5% DMSO, three independent measurements (a: duplicates); for ΔTm at 50 µM / ΔTm (°C) ± SD (°C), primary screen: vs averaged Tm of 0.5% DMSO controls; for ΔTm at 50 µM: read-out: ΔTm (°C) ± SD (°C), primary screen; for Kd: read-out: apparent KD (μM), dose-response
# T1 construct: doubly truncated human TPH1 (ΔNH102-ΔCOOH402); made in house; host or cells: E. coli BL21(DE3)
# Procedure: A fluorescence-based thermal stability assay (differential scanning fluorimetry, DSF) was used for testing the effects of HDIs on the thermal stability of TPH1.
# For initial high throughput screening (HTS), compounds were prepared at a concentration of 10 mM (in some cases, 5 mM) in 100% DMSO. Initial HTS screening was performed on TPH1 with and without compounds using a LightCycler 480 Real-Time PCR System (Roche Applied Science). TPH1 was diluted to 0.075 mg/mL in 50 mM Tris pH 8.0, 200 mM NaCl, 0.5 mM TCEP, and 5% glycerol with 5x SYPRO Orange. Compounds were added to a final concentration of 50 μM. Controls with 0.5% DMSO were performed on each 384-well microplate. Unfolding curves were recorded from 20 to 95 °C at a scan rate of 2 °C/min and monitored at excitation = 465 nm and emission = 610 nm. Selected hits were validated further by serial dilution from 250 μM to 122 nM, keeping the DMSO concentration constant at 2%.
# DSF data were analyzed using HTSDSF Explorer.[55] Melting temperature (Tm) was calculated from the maximum value of the first derivative of the unfolding curve. ΔTm (Tm with compound–averaged Tm in DMSO controls) was plotted for all validated curves and a threshold of 2 °C was set (typically, cutoff at ΔTm = 3-fold the SD of the Tm of the DMSO control).
# Preliminary binding constants (KD) were calculated by fitting data to the equation [drawing 1] where ΔH0 is the enthalpy of the unfolding of the protein in the presence of ligand ([L]), and R is the gas constant.
# [1] = Solubility observed in DSF dose-response; assay type: physicochemical; details: highest concentrations removed before curve fitting
# human recombinant HDAC1 = molecular target: T2, human recombinant HDAC1 (Homo sapiens, UniProt Q13547); assay: HDAC1 activity assay (homogeneous fluorescence, ZMAL); assay type: biochemical; details: 1.11–30 μM compound, DMSO (5%) control
# T2 construct: purchased BPS Bioscience 50051
# Procedure: HDAC1 inhibition was determined by using a homogeneous fluorescence assay as previously described.[58] For HDAC1 activity assay, OptiPlate-96 black microplates (PerkinElmer) were used.
# [2] = molecular target: T3, doubly truncated human TPH1 (ΔNH102-ΔCOOH402) (Homo sapiens, UniProt P17752); assay: TPH1 enzyme activity assay (HPLC, 5-OH-Trp); assay type: biochemical; details: for IC50: best-fit IC50 (± SE), nonlinear regression, N.A. = no activity
# T3 construct: doubly truncated human TPH1 (ΔNH102-ΔCOOH402); made in house; host or cells: E. coli BL21(DE3)
# Procedure: (§1) TPH1 enzymatic activity assays were performed with the selected hits from the DSF screening in the presence and absence of 50 μM of each compound. The final concentration of DMSO was 0.5% (v/v), and control experiments used 0.5% DMSO in the absence of ligand. Assays were performed in a standard reaction mixture containing 40 mM Hepes pH 7.0, 200 mM NaCl, 0.1 mg/mL catalase, 0.5 mg/mL BSA, 10 μM ferrous ammonium sulfate, and 30 μM L-tryptophan (L-Trp). Compounds were incubated with TPH1 (0.02 mg/mL) in the reaction mixture for 10 min on ice.
# human TPH2 = molecular target: T4, human TPH2 (Homo sapiens, UniProt Q8IWU9); assay: TPH2 enzyme activity assay (HPLC); assay type: biochemical; details: best-fit IC50 (± SE), nonlinear regression; N.A. = no activity
# T4 construct: Full-length human TH isoform 1 (TH1), human PAH, human TPH2, and doubly truncated human TPH1; MBP (cleaved yes); made in house; host or cells: E. coli BL21(DE3)
# T4 sequence (Q8IWU9 1-490): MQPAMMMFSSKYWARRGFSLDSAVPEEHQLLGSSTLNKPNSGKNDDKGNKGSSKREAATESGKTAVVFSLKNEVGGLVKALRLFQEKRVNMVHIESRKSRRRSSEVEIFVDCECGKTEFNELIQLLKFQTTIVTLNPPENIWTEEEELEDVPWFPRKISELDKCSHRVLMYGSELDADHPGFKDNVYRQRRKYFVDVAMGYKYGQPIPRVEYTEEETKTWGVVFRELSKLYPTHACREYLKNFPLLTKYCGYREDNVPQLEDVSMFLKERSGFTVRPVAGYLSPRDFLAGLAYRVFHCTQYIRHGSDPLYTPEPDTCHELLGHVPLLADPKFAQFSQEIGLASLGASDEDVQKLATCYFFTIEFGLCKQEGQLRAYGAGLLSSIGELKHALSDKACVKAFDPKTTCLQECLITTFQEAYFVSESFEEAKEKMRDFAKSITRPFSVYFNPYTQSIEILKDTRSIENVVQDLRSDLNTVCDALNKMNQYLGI
# Procedure: as §1
# human PAH = molecular target: T5, human PAH (Homo sapiens, UniProt P00439); assay: PAH enzyme activity assay (HPLC, L-Tyr); assay type: biochemical; details: best-fit IC50 (± SE), nonlinear regression, N.A. = no activity
# T5 construct: Full-length human TH isoform 1 (TH1), human PAH, human TPH2, and doubly truncated human TPH1; made in house; host or cells: E. coli TB1
# T5 sequence (P00439 1-452): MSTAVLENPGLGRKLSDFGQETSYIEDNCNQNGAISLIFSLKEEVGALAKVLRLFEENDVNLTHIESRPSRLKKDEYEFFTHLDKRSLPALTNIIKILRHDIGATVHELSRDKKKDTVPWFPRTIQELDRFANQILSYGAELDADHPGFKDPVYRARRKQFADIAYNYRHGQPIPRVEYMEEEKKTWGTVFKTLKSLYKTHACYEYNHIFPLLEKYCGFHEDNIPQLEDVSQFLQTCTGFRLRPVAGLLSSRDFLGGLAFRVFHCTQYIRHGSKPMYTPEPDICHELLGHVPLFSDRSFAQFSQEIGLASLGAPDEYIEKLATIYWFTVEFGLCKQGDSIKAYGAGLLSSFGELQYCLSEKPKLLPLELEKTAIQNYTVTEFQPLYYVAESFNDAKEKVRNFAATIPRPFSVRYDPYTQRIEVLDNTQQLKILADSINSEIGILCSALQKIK
# human TH isoform 1 (TH1) = molecular target: T6, human TH isoform 1 (TH1) (Homo sapiens, UniProt P07101); assay: TH enzyme activity assay (HPLC, L-DOPA); assay type: biochemical; details: best-fit IC50 (± SE), nonlinear regression; N.A. = no activity
# T6 construct: Full-length human TH isoform 1 (TH1); His6-ZZ fusion partner (one of the two preparations only) (cleaved yes); made in house; host or cells: E. coli BL21(DE3) pLysS (pET3a) or BL21 CodonPlus (pET-ZZ-1a)
# Procedure: The activity of purified PAH, TH, TPH1, and TPH2 was measured using high-performance liquid chromatography (HPLC) as previously described.[50],[56],[57]
# TH activities were performed in a standard reaction mixture containing 40 mM Hepes (pH 7.0), 0.1 mg/mL catalase, 10 μM ferrous ammonium sulfate, and 50 μM L-Tyr. Compounds were incubated with TH (0.01 mg/mL) in the reaction mixture for 10 min on ice. The enzymatic reaction was initiated by adding 200 μM BH4 and 2 mM DTT (final concentrations) and stopped by precipitation with 2% (v/v) acetic acid in ethanol after 5 min at 37 °C. The product, L-DOPA, was quantified by HPLC utilizing a fluorescence monitor set at 281 and 314 nm for excitation and emission, respectively.
# GraphPad Prism (version 10; La Jolla, CA) was used for analyzing the enzyme inhibition data.
# HDAC 1 = details: human recombinant HDAC; ref 5 (10.1021/acs.jmedchem.8b01090); cited from earlier work
# HDAC 6 = details: human recombinant HDAC; ref 5 (10.1021/acs.jmedchem.8b01090); cited from earlier work
# HDAC 8 = details: human recombinant HDAC; ref 1 (PMID: 26443078); cited from earlier work
# [3] = estimated from DSF dose-response, 2% DMSO
# T6 sequence (P07101 1-497 isoform P07101-3): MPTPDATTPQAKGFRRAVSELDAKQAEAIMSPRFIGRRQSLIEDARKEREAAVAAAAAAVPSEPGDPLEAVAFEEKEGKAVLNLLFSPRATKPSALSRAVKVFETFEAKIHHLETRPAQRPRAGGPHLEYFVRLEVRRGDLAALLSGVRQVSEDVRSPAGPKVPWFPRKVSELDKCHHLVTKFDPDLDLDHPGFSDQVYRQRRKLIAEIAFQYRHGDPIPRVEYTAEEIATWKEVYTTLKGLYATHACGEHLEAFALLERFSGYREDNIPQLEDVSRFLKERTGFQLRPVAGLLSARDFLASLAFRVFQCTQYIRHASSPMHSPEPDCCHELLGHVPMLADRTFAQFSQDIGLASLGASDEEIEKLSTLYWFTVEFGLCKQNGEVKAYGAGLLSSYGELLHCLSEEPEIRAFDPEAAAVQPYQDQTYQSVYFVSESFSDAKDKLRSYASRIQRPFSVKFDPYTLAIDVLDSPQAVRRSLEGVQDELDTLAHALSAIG
# T3 sequence (P17752 102-402, stated change not applied): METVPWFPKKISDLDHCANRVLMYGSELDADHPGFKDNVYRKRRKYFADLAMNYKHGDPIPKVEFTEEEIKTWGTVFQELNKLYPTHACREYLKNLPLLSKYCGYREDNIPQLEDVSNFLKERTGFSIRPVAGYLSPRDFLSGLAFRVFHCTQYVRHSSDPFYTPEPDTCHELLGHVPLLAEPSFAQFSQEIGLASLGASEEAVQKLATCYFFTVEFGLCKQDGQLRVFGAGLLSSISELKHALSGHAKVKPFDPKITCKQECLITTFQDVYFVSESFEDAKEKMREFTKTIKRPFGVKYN
# T1 sequence (P17752 102-402): as the sequence (P17752 102-402, stated change not applied) above
# T2 sequence (Q13547 whole entry): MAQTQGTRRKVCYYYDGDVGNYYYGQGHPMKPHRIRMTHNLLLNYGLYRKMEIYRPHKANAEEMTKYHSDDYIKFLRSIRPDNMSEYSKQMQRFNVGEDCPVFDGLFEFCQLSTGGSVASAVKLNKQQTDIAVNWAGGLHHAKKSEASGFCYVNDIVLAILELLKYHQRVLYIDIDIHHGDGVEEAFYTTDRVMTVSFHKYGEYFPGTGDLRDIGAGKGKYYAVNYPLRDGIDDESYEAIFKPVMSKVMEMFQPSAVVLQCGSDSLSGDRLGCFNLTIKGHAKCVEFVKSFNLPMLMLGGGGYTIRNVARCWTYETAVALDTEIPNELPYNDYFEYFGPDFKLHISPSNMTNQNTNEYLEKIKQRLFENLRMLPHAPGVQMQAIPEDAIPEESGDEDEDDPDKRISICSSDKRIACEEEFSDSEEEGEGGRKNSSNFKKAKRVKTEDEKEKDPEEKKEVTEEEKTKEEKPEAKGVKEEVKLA
SMILES,"Tm (°C) ± SD (°C), primary screen (TPH1)","ΔTm (°C) ± SD (°C), primary screen (TPH1) [°C]",Kd (TPH1; [3]),also measured
"Nc1ccccc1NC(=O)c1ccc(CNC(=O)OCc2cccnc2)cc1 [entinostat, reference compound]",56.0 ± 0.4 °C,,,ΔTm at 50 µM (TPH1): 0.7 ± 0.3 °C
"COc1ccc(C(=O)NO)cc1OCc1ccccc1 [PZ031, 3-Benzyloxy-4-methoxybenzhydroxamic acid]",57.0 ± 0.2 °C,1.6 ± 0.1,54.6 µM,
"COc1ccc(C(=O)NO)cc1NS(=O)(=O)c1ccc(C)cc1 [TH71, 3-(N-para-touluenyl)-sulfonamido-4-methoxy-benzohydroxamate]",60.0 ± 0.3 °C,4.7 ± 0.1,1.8 µM,
"O=C(NO)c1ccc(CN2c3ccccc3Sc3ccccc32)cc1 [KV46, 4-[(10H-phenothiazin-10-yl)methyl]-N-hydroxybenzamide]",59.1 ± 0.5 ^a °C,3.6 ± 0.3,> 100 µM,solubility at the highest concentrations [1]: solubility issues
"N[C@@H](Cc1ccc(Cl)cc1)C(=O)O [L-PCPA, 4-chloro-L-phenylalanine]",,,,effect on HDAC1 activity (human recombinant HDAC1): do not inhibit
"CC(C)c1cccc(=O)c(O)c1 [β-thujaplicin, reference compound]",,,,"effect of increasing compound concentration on the Tm of TPH1 (TPH1; DSF dose-response): concentration-dependent shift by decreasing the Tm; ΔTm at 50 µM (TPH1): -1.7 ± 0.1 °C; apparent KD (μM), dose-response (TPH1; [3]): very low affinity; IC50 [2]: 12.6 µM; inhibition at 50 µM ([2]; compound 50 μM, 0.5% DMSO): > 50%; IC50 (human TPH2): 12.9 µM; IC50 (human PAH; read-out: IC50 (μM) PAH): 0.46 µM and 0.5 µM; IC50 (human TH isoform 1 (TH1)): 1.37 µM and 1.4 µM"
"COc1ccc2c(c1)N(Cc1ccc(C(=O)NO)cc1)c1ccccc1S2 [KV103, N-Hydroxy-4-[(2-methoxy-10H-Phenothiazin-10-yl)methyl]benzamide]",59.6 ± 0.7 °C,4.3 ± 0.5,49.4 µM,"IC50 [2]: 106 ± 177 µM; inhibition of TPH1 activity at 50 μM ([2]; compound 50 μM, 0.5% DMSO): more than 50%; IC50 (human TPH2): 9.78 ± 17.2 µM; IC50 (human PAH; read-out: IC50 (μM) PAH): 8.12 ± 1.67 µM; IC50 (human TH isoform 1 (TH1)): 100 ± 128 µM; IC50 (HDAC 1): 2.07 ± 0.19 µM; IC50 (HDAC 6): 0.01 ± 0.001 µM"
Cc1ccn(-c2cc(Cl)ccc2[C@@H](Oc2cc(-c3ccc(C[C@H](N)C(=O)O)cc3)nc(N)n2)C(F)(F)F)n1 [telotristat],,,,IC50 (human PAH; read-out: IC50 (μM) PAH): 4.9 µM; IC50 (human TH isoform 1 (TH1)): 4.2 µM; effect on HDAC1 activity (human recombinant HDAC1): do not inhibit
"O=C(NO)c1cc2ccccc2[nH]1 [TB74, 1H-Indole-2-hydroxamic acid]",59.7 ± 0.4 °C,4.4 ± 0.4,0.7 µM and 1.4 µM,"inhibition of TPH1 activity at 50 μM ([2]; compound 50 μM, 0.5% DMSO): no significant inhibition; solubility at the highest concentrations [1]: solubility issues"
"Cc1ccc(C(=O)NO)cc1C(=O)Nc1ccc(Cl)cc1 [EG23, 3-(4-Chlorophenylcarbamoyl)-N-hydroxy-4-methylbenzamide]",58.2 ± 0.2 °C,2.7 ± 0.2,14.1 µM,
"O=C(NO)c1coc(C(c2ccccc2)c2ccccc2)n1 [JS32, 2-(diphenylmethyl)-1,3-oxazole-4-carbohydroxamic acid]",58.5 ± 0.2 ^a °C,3.1 ± 0.0,30.9 µM,solubility at the highest concentrations [1]: solubility issues
"Cc1cc2cc(NS(=O)(=O)c3cc(C(=O)NO)ccc3Cl)ccc2n(C)c1=O [EG29, 4-Chloro-3-[(1,3-dimethyl-2-oxo-1,2-dihydroquinolin-6-yl)sulfamoyl]-N-hydroxybenzamide]",57.8 ± 0.0 °C,2.3 ± 0.2,10.3 µM,
"O=C(NO)c1cccc(NCc2ccccc2)c1 [TH28, 3-N-Benzylamino-benzohydroxamate]",58.1 ± 0.3 °C,2.8 ± 0.1,76.3 µM,
"O=C(CCCCCCC(=O)Nc1ccccc1)NO [vorinostat, reference compound]",56.4 ± 1.9 °C,,,ΔTm at 50 µM (TPH1): 1.1 ± 2.1 °C; IC50 (human PAH; IC50 (μM) PAH): 1.72 ± 0.61 µM; IC50 (HDAC 8): […]
"Oc1ccccc1-c1nc2ccccc2o1 [2-(2-OH-phenyl)benzoxazol, 2-(2-hydroxyphenyl)benzoxazole, reference compound]",57.6 ± 0.7 °C,,,ΔTm at 50 µM (TPH1): 2.3 ± 0.9 °C
COC(=O)[C@H](Cc1ccc(-c2ccc(C)cc2)cc1)NC(=O)CCCCCCC(=O)NO [SW189],58.0 ± 0.3 °C,2.7 ± 0.0,,

# From article PMC11587510, “Aromatic Amino Acid Hydroxylases as Off-Targets of Histone Deacetylase Inhibitors” (ACS Chemical Neuroscience, 2024)
